According to PubChem BioAssay (NCI):
Values joined by “and” are separate entries in the source; they are usually repeats but may differ in a detail not shown here. Equal entries are not always repeated.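 In this assay, cells in 96-well plates receive the compound at five concentrations for 48 hours. Endpoints are linearly interpolated between the surrounding concentrations. Abbreviation: GI50, concentration required for 50% inhibition of growth. The concentration for full growth arrest is given as TGI.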

Tests used:
Assay in all cases: NCI anticancer screen, dose series, 48 h
786-0 renal = test system: 786-0 renal
COLO 205 colon = test system: COLO 205 colon
KM12 colon = test system: KM12 colon
LOX IMVI melanoma = test system: LOX IMVI melanoma
NCI-H460 lung = test system: NCI-H460 lung
NCI-H522 lung = test system: NCI-H522 lung
A498 renal = test system: A498 renal
MDA-MB-231 breast = test system: MDA-MB-231 breast
MDA-MB-435 = test system: MDA-MB-435
T-47D breast = test system: T-47D breast

Structure (SMILES) | TGI (786-0 renal) | TGI (COLO 205 colon) | TGI (KM12 colon) | TGI (LOX IMVI melanoma) | TGI (NCI-H460 lung) | TGI (NCI-H522 lung) | TGI (A498 renal) | GI50 (KM12 colon) | GI50 (NCI-H522 lung) | GI50 (786-0 renal) | GI50 (A498 renal) | GI50 (LOX IMVI melanoma) | GI50 (MDA-MB-231 breast) | TGI (MDA-MB-231 breast) | GI50 (MDA-MB-435) | TGI (MDA-MB-435) | GI50 (NCI-H460 lung) | GI50 (COLO 205 colon) | GI50 (T-47D breast) | TGI (T-47D breast)
COC(=O)C1=C(C(=O)OC)C2C=CC1C1C(Cl)=C(Cl)C21 (stereo not drawn) | > 100 µM | > 100 µM | > 100 µM | > 100 µM | > 100 µM | > 100 µM | – | – | – | – | – | – | – | – | – | – | – | – | – | –
O=C1OCc2c1cc1ccc(O)c(OC3OC(CO)C(O)C(O)C3O)c1c2-c1ccc2c(c1)OCO2 (stereo not drawn) | > 100 µM | > 100 µM | > 100 µM | > 100 µM | > 100 µM | 59.9 µM | > 100 µM | 23.4 µM | 22.6 µM | – | – | – | – | – | – | – | – | – | – | –
O=C1/C(=C/c2ccc(Cl)cc2Cl)N=C(c2ccccc2)N1Cc1ccco1 | 41.2 µM | – | > 100 µM | > 100 µM | > 100 µM | 48.4 µM | 61 µM | 33.7 µM | 18.9 µM | 19.8 µM | 22.3 µM | 50.5 µM | 17.6 µM | 49.3 µM | 43.6 µM | > 100 µM | 26.6 µM | – | – | –
OCCC1(O)CCC(O)CC1 (stereo not drawn) | > 100 µM | > 100 µM | > 100 µM | > 100 µM | > 100 µM | > 100 µM | > 100 µM | – | – | – | – | – | – | – | – | – | – | – | – | –
CC[CH2][Pb]([CH2]CC)([CH2]CC)[O]C(=O)C(F)(F)F | 0.376 µM | 0.374 µM | 0.33 µM | 0.255 µM | 0.398 µM | 0.348 µM | 0.245 µM | 0.125 µM | 0.181 µM | 0.165 µM | 0.0579 µM | 0.0891 µM | 0.142 µM | 0.44 µM | 0.0379 µM | 0.106 µM | 0.113 µM | 0.164 µM | – | –
COc1cc2c3c(n(C)c(=O)c2cc1OC)-c1cc2c(cc1/C3=C\CCCN1C(=O)c3ccccc3C1=O)OCO2 | > 40 µM | > 40 µM | > 40 µM | > 40 µM | > 40 µM | – | > 40 µM | 5.1 µM | – | > 40 µM | > 40 µM | 20.8 µM | – | – | > 40 µM | > 40 µM | 4.76 µM | > 40 µM | > 40 µM | > 40 µM
CC(C)CC(=O)[O-].CC(C)CC(=O)[O-].N.N.N.N.[Co+3].[O-][Cl+3]([O-])([O-])[O-] | > 100 µM | > 100 µM | > 100 µM | > 100 µM | > 100 µM | > 100 µM | > 100 µM | > 100 µM | 51 µM and 90 µM | > 100 µM | > 100 µM | > 100 µM | – | – | – | – | > 100 µM | > 100 µM | – | –
CCCCCCCCCCCCCC(=O)OC1CC(=O)OC1CO (stereo not drawn) | > 100 µM | > 100 µM | 56.7 µM | 73.5 µM | > 100 µM | – | > 100 µM | – | – | – | – | – | – | – | – | – | – | – | – | –
Clc1ccc(C2N3CCCCC3[C@@H]3c4[nH]c5ccccc5c4CCN23)cc1 (stereo partly drawn) | > 100 µM | – | – | – | > 100 µM | – | > 100 µM | – | – | – | – | – | – | – | – | – | – | – | – | –
CC12CC[C@@H](C(C)(C)O)C1[C@@H](O)CC1(C)C2CCC2[C@@]3(C)CC[C@H](O)C(C)(C)C3C(O)C[C@]21C (stereo partly drawn) | 33.8 µM | 66.7 µM | 38.1 µM | – | 37.5 µM | – | 32.3 µM | – | – | – | – | – | – | – | – | – | – | – | – | –
CCCCNC1=C(C(=O)OCC)C(=O)CO1 | > 100 µM | > 100 µM | > 100 µM | > 100 µM | > 100 µM | > 100 µM | – | – | – | – | – | – | – | – | – | – | – | – | – | –
N#C/C(=C/c1ccsc1)C(=O)c1ccccc1 | > 100 µM | > 100 µM | > 100 µM | > 100 µM | > 100 µM | > 100 µM | – | – | – | – | – | – | – | – | – | – | – | – | – | –
CCOc1ccc2c(c1)[n+]([O-])c(S(=O)(=O)c1ccc(C)cc1)c(N)[n+]2[O-] | > 100 µM | > 100 µM | > 100 µM | – | > 100 µM | > 100 µM | > 100 µM | – | – | – | – | – | – | – | – | – | – | – | – | –
CC(=O)Nc1ccccc1Sc1ccccc1 | > 100 µM | > 100 µM | > 100 µM | > 100 µM | > 100 µM | > 100 µM | > 100 µM | – | – | – | – | – | – | – | – | – | – | – | – | –
COc1ccccc1C1C(C(=O)Nc2ccccc2)=C(C)NC(C)=C1C(=O)Nc1ccccc1 | > 100 µM | 65.2 µM | > 100 µM | > 100 µM | > 100 µM | > 100 µM | 82.5 µM | – | – | – | – | – | – | – | – | – | – | – | – | –
COc1ccc2ccc3c(c2c1)CN1CCc2cc(OC)c(OC)cc2C1C3 (stereo not drawn) | > 100 µM | > 100 µM | > 100 µM | > 100 µM | > 100 µM | > 100 µM | – | – | – | – | – | – | – | – | – | – | – | – | – | –
